In patent publication US20140011755A1, “Cardiac Glycosides for Treating Autoimmune Disease” (Department of Veterans Affairs, priority 2010, published 2014):

Experiments:
[1] = oral; cited from earlier work
[2] = test system: IL-10 cytokine secretion from B cells; experiment: IL-10 secretion (ELISA) by splenic B cells from treated MRL-Ipr mice; format: cell-based
Method: FIG. 19. […] MACS-purified B cells from vehicle or digitoxin-treated 23 week-old female MRL-Ipr mice were harvested from the spleen. 2×10^5 B cells were incubated either media, mifespristone (0.8 nM), Jak inhibitor I (15 nM), STAT3 inhibitor VI (500 μM) or dasatinib (1.1 nM) for 60 minutes, washed and incubated for 48 hr at 37° C. Cell supernatant was collected and ELISAs were used to quantify the amount of secreted IL-10 cytokine in each condition. Data represent the average of triplicate conditions and error bars represent the SEM. Statistical significance was performed using the student t-test.

TNF, IL-6 and IL-1beta = experiment: Serum cytokine ELISA in CIA treatment groups; format: in vivo; conditions: serum from 3 mice per treatment group, ELISA in triplicate
Source text: FIG. 9. Serum cytokine levels are similar between vehicle and cardiac glycoside treatment groups. […] The unpaired student t-test was used to assess significance.

phospho-STAT3 (Y705) = experiment: STAT3 phosphorylation in cells from CIA mice (flow cytometry, Western blot); format: cell-based; conditions: splenic B cells from CIA mice, 33 nM, 30 minutes / 0-60 minutes
Method: FIG. 15. […] Flow cytometry was performed using the FACSAria II (Bectin Dickenson). […] Lysates were quantified for total protein using the Nanodrop, and verification was performed by BCA (Pierce). Lysates were loaded onto SDS-PAGE and transferred to PVDF (Millipore). Membranes were blotted for phospho-STAT3 (Y705) and beta-actin.
Cardiac glycosides were administered at endogenous levels (sub- and nano Molar) or therapeutic levels (nano Molar) to modulate transcription factor activity and gene expression. Alteration of STAT1 activity has been observed in Alzheimer's disease and susceptibility to lethal intracellular pathogenic diseases (Kitamura et al, 1997; Chapgier et al, 2009). Aberrant STAT2 levels have been linked to inflammatory disease such as Crohn's disease (CD), ulcerative colitis (UC) and inflammatory bowel disease (IBD), and cancers such as colorectal and skin cancers (Gamero et al, 2010). STAT3 signaling is a critical component of Th17-dependent autoimmune processes. […] Mice with targeted deletion of Stat3 in T cells are resistant to experimental autoimmune encephalomyelitis, which is a multiple sclerosis (MS) model. […] STAT phosphorylation can be assessed by phospho-flow cytometric analysis, Western immunoblot and ELISA of circulating PBMCs or of biopsied tissues.

SLE-like disease = experiment: MRL-Ipr mouse model of systemic lupus erythematosus; format: in vivo, MRL-Ipr female mice
Method: FIG. 16. […] SLE-like disease progression in MRL-Ipr female mice (Jackson Laboratories) was evaluated. Briefly, 10 mice per treatment arm were followed for the development of SLE-like disease over the course of 16 weeks. […] Animals were scored on a weekly basis for proteinuria and survived until 23 weeks of age. Data represent the average proteinuria concentration in urine collected from each mouse using Uristix (Bayer Corp.). Error bars represent SEM. The Mann-Whitney test was used to determine significance between vehicle and digitoxin groups. Asterisks represent significant P values <0.01.
FIG. 17. […] At endpoint, 23 week old female MRL-Ipr mice were sacrificed and kidneys were fixed, embedded in paraffin, sectioned longitudinally and stained for glomeruli with periodic acid-Schiff stain (Histotec). (A) Depiction of a section taken from a representative vehicle treated kidney. (B) Depiction of a section taken from a representative digitoxin treated kidney.
FIG. 18. […] Endpoint serum titers were taken for each mouse and the concentration of anti-double-stranded DNA (ANA) antibodies were assessed (A). […] ANA antibodies were measured using ELISA (Alpha Diagnostic International). Error bars represent the SEM. The student t-test was used to determine significance. Asterisks represent significant P values.
Cardiac glycosides are used for the treatment of systemic lupus erythematosus and other forms of multi-system inflammatory diseases. […] Studies are conducted to determine the ability of cardiac glycosides to treat SLE. The effectiveness of cardiac glycosides at treating SLE disease progression in MRL-Ipr female mice (Jackson Laboratories) was evaluated. Briefly, 10 mice per experimental arm were followed for the development of SLE disease. […] Animals were scored on a weekly basis for proteinuria and survived until 23 weeks of age (FIG. 16). Weekly proteinuria monitoring was performed using Uristix (Bayer Corp.). […] Endpoint serum titres of double-stranded DNA (ANA) antibodies for each mouse were assessed (FIG. 18 A). […] ANA antibodies were measured using ELISA (Alpha Diagnostic International). […]

MRL-Ipr splenic B cells = experiment: ANA production by MRL-Ipr splenic B cells in vitro; format: cell-based, mice; conditions: 2×10^5 vehicle-treated MRL-Ipr splenic B cells, 33 nM

For C[C@H]1O[C@@H](O[C@H]2[C@@H](O)C[C@H](O[C@H]3[C@@H](O)C[C@H](O[C@H]4CC[C@@]5(C)[C@H](CC[C@@H]6[C@@H]5CC[C@]5(C)[C@@H](C7=CC(=O)OC7)CC[C@]65O)C4)O[C@@H]3C)O[C@@H]2C)C[C@H](O)[C@@H]1O [Digitoxin, digitoxin], the oral bioavailability [1] is given as over 90%, the “secreted IL-10 cytokine” value ([2]; 2×10^5 B cells from vehicle or digitoxin-treated 23 week-old mice, 48 hr, ELISA) is given as “induces IL-10 cytokine secretion” and the “mechanism dependence of IL-10 secretion (inhibitor pre-incubation)” value ([2]; mifespristone 0.8 nM, Jak inhibitor I 15 nM, STAT3 inhibitor VI 500 μM or dasatinib 1.1 nM for 60 minutes) is given as “dependent on steroid receptors, Jak activity, and STAT3 activity, but not BCR-ABL or Src-like Family Kinase activity”. The “Serum cytokine levels (TNF, IL-6 and IL-1beta) versus vehicle” value (TNF, IL-6 and IL-1beta) was “similar”, the “STAT3 phosphorylation (Y705)” value (phospho-STAT3 (Y705)) was “stimulate STAT3 phosphorylation” and the “disease severity (average proteinuria) in experimental lupus” value (SLE-like disease; 0.6 mg/kg every-4-days sublingual from week 8, 10 mice per arm, Mann-Whitney P<0.01) was “decrease disease severity”. For the same molecule, the “kidney pathology (periodic acid-Schiff stained glomeruli)” value (SLE-like disease; 23 week old mice at endpoint, 0.6 mg/kg every-4-days sublingual) was “decrease kidney pathology”, the “endpoint serum anti-double-stranded DNA (ANA) antibodies” value (SLE-like disease; endpoint serum, ELISA) was “inhibit autoantibody production” and the “ANA production in vitro at 72 hours” value (MRL-Ipr splenic B cells) was “blockade of autoantibody production”.
